Molecules are shown by their SMILES. A value given as a limit tells only on which side of the number the result lay.

In data set [1] the test system is T1, tubulin.
T1 construct: other: 1.0 M glutamate, 10 μM tubulin; Effect on tubulin polymerization / microtubule assembly
Nature of the data set: Tubulin polymerization inhibition in vitro (turbidity at 350 nm). It counts as biochemical. The note with it: for IC50: 1.0 M glutamate, 10 μM tubulin. How it is done: Microtubule assembly is followed in a temperature controlled recording spectrophotometer. For details and a discussion, see R. D'Amato et al., Proc Natl Acad Sci USA, 91:3964-3968 (1994).
A typical reaction mixture, which will have a final reaction volume of […], contains 1.0 M monosodium glutamate (pH 6.6), 1.0 mg/ml (10 μM) tubulin, 1.0 MM MgCl2, 4% (v/v) dimethylsulfoxide, and a compound to be tested at the desired concentration (typically 0.1 to 100 μM). The reaction mixtures are incubated for 15 min. at 37° C. and then chilled on ice. After addition of 10 μl 12.5 mM GTP (and, optionally, 0.33 mg/ml microtubule-associated proteins, or MAPs) to initiate polymerization, each reaction mixture is transferred to a cuvette at 0° C., and a baseline established. At time zero, the temperature controller of the spectrophotometer is set to a target temperature, typically between 25 and 37° C. Microtubule assembly is monitored by observing an increase in turbidity at 350 nm as the temperature of the reaction mixture rises to the set target temperature.
The results are presented in Table 1 as IC50 values (μM) for inhibition of tubulin polymerization. Alternatively, inhibition of microtubule assembly can be detected by transmission electron microscopy, as described in U.S. Pat. No. 5,504,074 which is hereby incorporated by reference in its entirety.

A further data set has as its system tumor cells. The data set is described as follows: Inhibition of cell growth in the NCI Developmental Therapeutics Program tumor cell screen. In kind it is cell-based. The note with it: mean graph midpoint for all cell lines tested. How it is done:
The compounds of the invention were tested for inhibition of cell growth in the established tumor cell screen of the National Cancer Institute Developmental Therapeutics Program. See Boyd et al., Drug Dev. Res., 34:91-109 (1995). Results are presented in Table 1 as the “MGM” values (mean graph midpoint, in μM, for all cell lines tested).

Data set [2] has as its system T2, tubulin.
T2 construct: Activity in room temperature assay; other: no polymerization in the absence of drug; other: GTP-only system, critical concentrations
The data set is described as follows: Enhancement of glutamate- or MAP-induced tubulin assembly, turbidimetric curves (FIGS. 4 and 5). In kind it is biochemical. How it is done: In those cases where acceleration of tubulin polymerization is observed, an IC50 value for inhibition of polymerization is of course not derivable. Results for such compounds may be presented in the form of turbidimetric curves, e.g. as presented in FIGS. 4 and 5 for representative compounds 13 and 18.
FIG. 4: Each reaction mixture contained 0.8 M glutamate (pH 6.6), 0.4 mM GTP, 12 μM (1.2 mg/ml) tubulin, 4% (v/v) dimethyl sulfoxide, and compound 13 or 18 as indicated. Baselines were established at 0°, and at time zero the temperature controller was set at 26°. At the time indicated by the dashed line, the temperature controller was set at 0°. A. Curve 1, no drug; curve 2, 2 μM compound 13; curve 3, 5 μM 7; curve 4, 10 μM 7; curve 5, 40 μM 7; curve 6, 40 μM 14. B. Curve 1, no drug; curve 2, 2 μM compound 18; curve 3, 5 μM 18; curve 4, 10 μM 18; curve 5, 40 μM 18.
FIG. 5: Each reaction mixture contained 0.1 M Mes (pH 6.9 with NaOH in 0.5 M stock solution), 0.1 mM GTP, 10 μM (1.0 mg/ml) tubulin, 0.75 mg/ml heat-treated MAPs, 4% dimethyl sulfoxide, and drug as indicated. […] There was no change in turbidity in any reaction mixture. At this point the temperature controller was set at 10°, and subsequent temperature changes, as indicated, were made at the times indicated by the vertical dashed lines. Curve 1, no drug; curve 2, 10 μM paclitaxel; curve 3, 10 μM compound 13; curve 4, 20 μM 7; curve 5, 40 μM 7; curve 6, 10 μM compound 18.

By melting point is commonly meant the temperature of the solid-liquid transition. A word on the IC50: it is the concentration at which inhibition is half-maximal. As for `CCOc1cc2c(cc1O)CC(=O)CC1C2CCC2(C)C(O)CCC12` (stereo not drawn) [Compound 9, B-Homo-3,170β-dihydroxy-2-ethoxyestra-1,3,5(10)-triene-7-one], the melting point fell in the range of 210 to 212 °C. The IC50 in the data set with tubulin [1] was > 40 µM.
Taken in the same sequence, the figures for `CCOc1cc2c(cc1OC(C)=O)CCCC1C2CCC2(C)C(OC(C)=O)CCC12` (stereo not drawn) [Compound 12, B-Homo-3,17β-diacetoxy-2-ethoxyestra-1,3,5(10)-triene] were 98 to 100 °C and > 40 µM.
Take `CCOc1cc2c(cc1O)C(=NO)C[C@@H]1[C@@H]2CC[C@]2(C)[C@@H](OC(C)=O)CC[C@@H]12` [Compound 27, 17β-Acetoxy-2-ethoxy-6-hydroximinoestra-1,3,5(10)-triene-3-ol]: the melting point lay within 226 to 227 °C. In addition, the “Cytotoxicity (MGM μM)” value in the data set on tumor cells was determined as 0.567 µM. The IC50 in the data set on tubulin [1] is > 40 µM.
For `CCOc1cc2c(cc1O)N(C(C)=O)CCC1C2CCC2(C)C(O)CCC12` (stereo not drawn) [Compound 32, B-Homo-6-acetyl-6-aza-2-ethoxyestra-1,3,5(10)-triene-3,17β-diol], the melting point was in the range of 189 to 191 °C. Besides, the “Cytotoxicity (MGM μM)” value in the data set with tumor cells amounted to 35.5 µM. In addition, in the data set with tubulin [1], the “Effect on tubulin polymerization / microtubule assembly” value is reported as “inhibit tubulin polymerization” and the IC50 worked out at 25 µM.
Turning to `CCOc1cc2c(cc1O)NC(=O)CC1C2CCC2(C)C(O)CCC12` (stereo not drawn) [Compound 29, B-Homo-6-aza-2-ethoxy-3,17β-dihydroxyestra-1,3,5(10)-trien-7-one], the melting point lay in the range of 222 to 223 °C. Besides, the “Cytotoxicity (MGM μM)” value in the data set with tumor cells came out at 16.2 µM. Besides, in the data set on tubulin [1], the “Effect on tubulin polymerization / microtubule assembly” value was “inhibit tubulin polymerization” and 4 µM corresponded to half-maximal inhibition (IC50).
Take `CCOc1cc2c(cc1OC(C)=O)C(=O)CCC1C2CCC2(C)C(O)CCC12` (stereo not drawn) [Compound 19, B-Homo-3-Acetoxy-2-ethoxy-17β-hydroxyestra-1,3,5(10)-trien-6-one]: the “Effect on glutamate- and MAP-induced tubulin assembly” value with tubulin [2] is “inactive”. The IC50 with tubulin [1] is > 40 µM.
`CCOc1cc2c(cc1O)CCCC1C2CCC2(C)C(O)CCC12` (stereo not drawn) [Compound 11, B-Homo-2-ethoxy-3.17β-estradiol] returned a melting point of 86 to 88 °C. Besides, in the data set with tubulin [1], the “Effect on tubulin polymerization / microtubule assembly” value is on record as “inhibit tubulin polymerization” and the midpoint of inhibition, the IC50, lay at 1.3 µM.
In the case of `CCOc1cc2c(cc1OC(C)=O)N(C(C)=O)CCC1C2CCC2(C)C(OC(C)=O)CCC12` (stereo not drawn) [Compound 31, B-Homo-6-acetyl-6-aza-3,17β-diacetoxy-2-ethoxyestra-1,3,5(10)-triene], the “Cytotoxicity (MGM μM)” value with tumor cells stood at 38.0 µM. In addition, the IC50 in the data set on tubulin [1] was > 40 µM.
In the same order, the values of `CCOc1cc2c(cc1O)NCCC1C2CCC2(C)C(O)CCC12` (stereo not drawn) [Compound 30, B-Homo-6-aza-2-ethoxyestra-1,3,5(10)-triene-3,17β-diol] are 49.0 µM and > 40 µM.
For `CCOc1cc2c(cc1O)N(CC)CCC1C2CCC2(C)C(O)CCC12` (stereo not drawn) [Compound 33, B-Homo-6-aza-2-ethoxy-6-ethylestra-1,3,5(10)-triene-3,17β-diol], in the data set on tumor cells, the “Cytotoxicity (MGM μM)” value was determined as 50.1 µM. For the same compound, in the data set with tubulin [1], the IC50 was > 40 µM.
Consider `CCOc1cc2c(cc1O)C(=O)CCC1C2CCC2(C)C(O)CCC12` (stereo not drawn) [Compound 14, B-Homo-2-ethoxy-6-oxoestra-1,3,5(10)-trien-3,17β-diol], for which, in the data set on tubulin [2], the “Effect on glutamate- and MAP-induced tubulin assembly” value is “inactive”. Moreover, in the data set with tubulin [1], the IC50 is > 40 µM.
On to `CCOc1cc2c(cc1O)CC(=NNS(=O)(=O)c1ccc(C)cc1)CC1C2CCC2(C)C(O)CCC12` (stereo not drawn) [Compound 10, B-Homo-2-ethoxy-3,17β-dihydroxyestra-1,3,5(10)-triene-7-one toluenesulfonyl-hydrazone], for which, in the data set with tubulin [1], the IC50 is > 40 µM.

The values are drawn from patent US6696436B1, “B-homoestra-1,3,5(10)-trienes as modulators of tubulin polymerization” (The United States of America as represented by the …, priority 1999, dated 2004).
